Data taken from patent US8629103B2, “Treatment of non-proliferative cystic disease of the breast” (New York University, priority 2010, dated 2014).
“Also recorded” adds a separate entry of the source. Starred links: 1 amine or outer side, 2 acyl side, 3 side chain; linkers in the order of their positions; H or OH if unused. Non-standard residues stand in square brackets, D forms with d. Residues, ends and D or L forms follow the SMILES beside them. Groups on a side chain read outwards from the residue. *: point of attachment. Ethylenediamine = C(CN[*:2])N[*:1]; Hyp = O=C(O)[C@@H]1C[C@@H](O)CN1; Phg = N[C@H](C(=O)O)c1ccccc1; CO = O=C([*:1])[*:2]; Bn = c1ccc(C*)cc1

Columns and labels:
[1] = tested on: growth hormone and estradiol induced mammary hyperplasia; details: Kleinberg et al. 2011; cited from earlier work
[2] = tested on: breast cancer; details: women with certain hyperplastic lesions of the breast; clinical evidence; cited from earlier work
[3] = tested on: IGF-I receptor, ERK, and AKT; experiment: Western blots of phosphorylation of IGF-I receptor, ERK and AKT in treated Brca1LoxP/Brca1LoxP mice; assay type: in vivo; details: 4 month old Brca1LoxP/Brca1LoxP females; 7 days; PQ401 100 mg/kg thrice a week intraperitoneal; pasireotide 10 μg/kg/h by Alzet pump
Procedure: Western blots showing that the increased phosphorylation of IGF-I receptor and its downstream mediators ERK and AKT in Brca1^LoxP/Brca1^LoxP females is reduced by treatment with 100 mg/kg PQ401 thrice a week and 10 μg/kg/h pasireotide. The two WT samples are from age-matched, untreated C57Bl/6 control mice. PQ401 was administered by intraperitoneal injections, pasireotide by Alzet pump Model 2001. For both drugs, the course of treatment was 7 days.
FIG. 6 depicts Western blots showing the effects of IGF-I inhibition on the phosphorylation of IGF-I receptor, ERK, and AKT in 4 month old Brca1^LoxP/Brca1^LoxP. The increased phosphorylation of IGF-I receptor and its downstream mediators ERK and AKT in Brca1^LoxP/Brca1^LoxP females is reduced by treatment with 100 mg/kg PQ401 thrice a week and 10 μg/kg/h pasireotide. The two WT samples are from age-matched, untreated C57Bl/6 control mice. PQ401 was administered by intraperitoneal injections, pasireotide by Alzet pump Model 2001. For both drugs, the course of treatment was 7 days.

[4] = tested on: Brca1^LoxP/Brca1^LoxP mice; experiment: Mammary gland phenotype (whole mounts, hematoxylin-eosin sections, duct width, HANs) of treated Brca1LoxP/Brca1LoxP mice; assay type: in vivo; details: for width of mammary gland ducts / ductal dilatation: 10 μg/kg/h for 7 days by Alzet pump, vs vehicle (water); for mammary gland phenotype (whole mounts, histology): 7 days
Procedure: Representative whole mounts of mammary glands from 4 month old Brca1^LoxP/Brca1^LoxP females treated with water (upper photomicrographs) or 10 μg/kg/h pasireotide (lower photomicrographs) for 7 days. Both water and pasireotide were administered by Alzet pump Model 2001.
FIG. 8 depicts effects of pasireotide on the mammary gland phenotype of Brca1^LoxP/Brca1^LoxP mice. Representative hematoxylin-eosin sections of mammary glands from 4 month old Brca1^LoxP/Brca1^LoxP females treated with water (left) or pasireotide (center and right) for 7 days. Both water and pasireotide were administered by Alzet pump Model 2001. The dosage of pasireotide was 10 μg/kg/h.
FIG. 9 depicts effects of pasireotide on duct width of mammary glands of Brca1^LoxP/Brca1^LoxP mice. […] Both water and pasireotide were administered by Alzet pump Model 2001. Six animals were treated with pasireotide and five animals were treated with water (control). […]
The present inventor has made the surprising discovery that mice comprising loxP sites flanking exon 11 of the BRCA1 gene (formally known as Brca1^loxP/loxP, but also referred to herein as LoxP mice) display profoundly abnormal mammary gland development at an early age. LoxP mice were acquired from the National Institutes of Health Mouse Repository. The strain is Stock Brcal^tm2Cxd and the Strain code is 01XC8. Mice were maintained in accordance with the standards established by the Association for Assessment and Accreditation of Laboratory Animal Care (AAALAC) (New York University).
Representative whole mounts of mammary glands from 4 month old Brca1^LoxP/Brca1^LoxP females treated with water (upper photomicrographs) or 10 μg/kg/h pasireotide (lower photomicrographs) for 7 days are shown. Both water and pasireotide were administered by Alzet pump Model 2001. […] These findings were confirmed on a histological level as shown in FIG. 8 which depicts representative hematoxylin-eosin sections of mammary glands from 4 month old Brca1^LoxP/Brca1^LoxP females treated with water (left) or pasireotide (center and right) for 7 days. Both water and pasireotide (10 μg/kg/h) were administered by Alzet pump Model 2001. […] Both water and pasireotide were administered by Alzet pump Model 2001. […]

[5] = tested on: Ki67-positive epithelial cells in the mammary glands; experiment: Ki67 immunohistochemistry of mammary epithelial cells in treated Brca1LoxP/Brca1LoxP mice; assay type: in vivo; details: 4 month old Brca1LoxP/Brca1LoxP mice; 7 days of treatment; vs vehicle
Text: The frequency of Ki67-positive mammary epithelial cells in C57Bl/6 controls treated with water (WT, water) is also presented. *, p<0.05 as compared with WT, water; **, p<0.01 as compared with WT, water; a, p<0.05 as compared with LoxP, water; b, p<0.01 as compared with LoxP, water.
The frequency of Ki67-positive mammary epithelial cells in C57Bl/6 controls treated with water (WT, water) is also presented. *, p<0.05 as compared with WT, water; **, p<0.01 as compared with WT, water; a, p<0.05 as compared with LoxP, water; b, p<0.01 as compared with LoxP, water. […] This finding is significant because Ki67 is a cancer antigen that is found in growing, dividing cells, but is absent in the resting phase of cell growth. Accordingly, Ki67 is viewed as a good tumor cell marker.

[6] = tested on: somatostatin receptors; details: cited from earlier work; for somatostatin receptors bound: of the 5 somatostatin receptors
[7] = tested on: mammary development in rats; details: Ruan et al. 2006; cited from earlier work
[8] = molecular target: IGF-I receptor (Homo sapiens, UniProt P08069); details: cited from earlier work
IGF-I receptor, sequence (P08069 31-1367, species assumed): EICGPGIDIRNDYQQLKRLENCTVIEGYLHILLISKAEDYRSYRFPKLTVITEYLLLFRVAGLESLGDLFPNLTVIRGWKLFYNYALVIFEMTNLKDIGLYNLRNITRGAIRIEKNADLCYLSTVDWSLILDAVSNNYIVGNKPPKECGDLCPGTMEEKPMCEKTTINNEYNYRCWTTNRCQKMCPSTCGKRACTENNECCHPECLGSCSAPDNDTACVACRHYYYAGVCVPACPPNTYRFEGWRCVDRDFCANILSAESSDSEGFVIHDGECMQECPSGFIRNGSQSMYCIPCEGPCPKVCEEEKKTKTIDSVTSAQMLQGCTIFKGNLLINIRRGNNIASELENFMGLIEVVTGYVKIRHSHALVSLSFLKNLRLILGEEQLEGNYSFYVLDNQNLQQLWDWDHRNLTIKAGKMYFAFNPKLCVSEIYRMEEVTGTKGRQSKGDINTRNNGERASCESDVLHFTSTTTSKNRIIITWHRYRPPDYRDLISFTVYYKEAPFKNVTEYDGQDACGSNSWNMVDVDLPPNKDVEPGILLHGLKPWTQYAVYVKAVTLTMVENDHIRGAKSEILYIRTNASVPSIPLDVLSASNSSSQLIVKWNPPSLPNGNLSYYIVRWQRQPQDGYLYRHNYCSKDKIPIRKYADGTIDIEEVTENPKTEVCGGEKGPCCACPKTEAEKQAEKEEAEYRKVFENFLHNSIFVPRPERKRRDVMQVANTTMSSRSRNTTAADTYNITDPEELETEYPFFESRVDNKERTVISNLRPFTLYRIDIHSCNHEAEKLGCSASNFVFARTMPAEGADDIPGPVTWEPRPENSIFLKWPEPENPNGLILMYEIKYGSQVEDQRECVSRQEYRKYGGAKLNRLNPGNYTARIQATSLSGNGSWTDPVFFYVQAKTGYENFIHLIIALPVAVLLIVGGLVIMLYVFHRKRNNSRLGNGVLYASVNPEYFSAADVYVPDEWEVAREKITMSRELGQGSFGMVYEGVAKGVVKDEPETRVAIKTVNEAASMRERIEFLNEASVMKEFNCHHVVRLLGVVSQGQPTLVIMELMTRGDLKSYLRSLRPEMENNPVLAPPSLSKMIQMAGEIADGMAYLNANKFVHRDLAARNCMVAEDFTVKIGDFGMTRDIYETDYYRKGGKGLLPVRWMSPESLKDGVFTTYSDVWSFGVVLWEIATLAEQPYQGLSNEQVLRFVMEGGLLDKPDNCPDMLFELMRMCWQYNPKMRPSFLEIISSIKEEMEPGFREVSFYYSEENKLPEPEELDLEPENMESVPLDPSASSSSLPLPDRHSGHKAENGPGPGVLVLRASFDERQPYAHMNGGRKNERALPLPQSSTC

[9] = 4 month old Brca1LoxP/Brca1LoxP females, pasireotide 10 μg/kg/h Alzet pump vs water, PQ401 intraperitoneal vs 8% ethanol/Tween 80 in PBS

## CC/C(=C(\c1ccccc1)c1ccc(OCCN(C)C)cc1)c1ccccc1 [tamoxifen]
[1]
  growth hormone and estradiol induced mammary hyperplasia: prevent
[2]
  prevention of the development of cancer: about 50%

## NCCCC[C@@H]1NC(=O)[C@@H](Cc2c[nH]c3ccccc23)NC(=O)[C@H](c2ccccc2)NC(=O)[C@@H]2C[C@@H](OC(=O)NCCN)CN2C(=O)[C@H](Cc2ccccc2)NC(=O)[C@H](Cc2ccc(OCc3ccccc3)cc2)NC1=O [pasireotide] (cyclo([Hyp]([CO-Ethylenediamine])[Phg][dW]KY(Bn)F))
[3]
  phosphorylation of IGF-I receptor and its downstream mediators ERK and AKT: reduced
[4]; 4 month old Brca1LoxP/Brca1LoxP females
  width of mammary gland ducts / ductal dilatation: effective in decreasing
[4]; 4 month old Brca1LoxP/Brca1LoxP females, listed as SOM230
  width of mammary gland ducts / ductal dilatation: significant effect on inhibiting; also recorded: significantly reduced
[4]; [9]
  mammary gland phenotype (whole mounts, histology): dramatically reduces
[4]; LoxP mice at 4 months of age treated with SOM230
  formation of HANs (hyperplastic alveolar nodules): preventing
[4]; affected LoxP animals, SOM230 or control vehicle for 1 week
  number of ducts: unchanged
[5]
  Ki67-positive epithelial cells in the mammary glands (cell proliferation): reduces; also recorded: significantly reduced
[6]
  affinity for SSTR3 and/or SSTR5 receptors: has affinity
  somatostatin receptors bound: 4 of the 5
[7]
  IRS-1 phosphorylation in the mammary gland (IGF-I action): reduction
  growth hormone secretion from the pituitary: inhibitory effect
  mammary development: prevents
[1]
  efficacy compared with tamoxifen in preventing growth hormone and estradiol-induced mammary hyperplasia: at least as effective as tamoxifen
  growth hormone and estradiol induced mammary hyperplasia: prevents

## COc1ccc(Cl)cc1NC(=O)Nc1cc(C)nc2ccccc12 [PQ401]
[3]
  phosphorylation of IGF-I receptor and its downstream mediators ERK and AKT: reduced
[4]; [9]
  mammary gland phenotype (whole mounts, histology): dramatically reduces
[5]
  Ki67-positive epithelial cells in the mammary glands (cell proliferation): reduces; also recorded: significantly reduced
[8]
  IGF-I receptor inhibition: very potent and specific

## somatostatin-14 [SS-14]
[4]; 9 month old Brca1LoxP/Brca1LoxP females, Alzet pump, vs water
  mammary gland phenotype (whole mounts, histology): reduces
[4]; nine month old LoxP animals treated for a week
  number of HANs: impressive reduction
[6]
  somatostatin receptors bound: all
